Results as given in patent publication US11925656B2, “Biological total joint replacement” (priority 2014, dated 2024).

Key:
ADAMTS-5 = ADAMTS-5 in synovial fluid by ELISA, rabbit arthritis model; type: in vivo; settings: therapeutic groups, oral days 42-70, vs control
Source text: (§1) The study was approved by the Institutional Animal Care and Use Committee (IACUC) of Thomas D. Morris, Inc. 28 New Zeeland White rabbits were selected for the study. Six such were randomly assigned to one of four groups; prophylactic cyanidin-3-glycoside (C3G)(referred to figures as Cl 1-42), prophylactic protocatechuic acid (PCA)(referred to in figures as PCA 1-42), therapeutic C3G (referred to in figures as Cl 42-70), and therapeutic PCA (referred to in figures as PCA 42-70). There were four controls, two each to the prophylactic and therapeutic groups.
(§2) The prophylactic groups were given PROC3G™ by Chromadex™ at a dose of 30 mg/kg of body weight of either C3G or PCA by mouth, 7 times per week for 42 days. The therapeutic groups' treatment was initiated on day 42 with a daily dose of PROC3G™ by Chromadex™ 7 times per week for 4 weeks. The dose of 30 mg of cyanidin-3-glucoside per kg of body weight calculates to be 0.177 millimoles per kg body weight. The dose of PCA was the same in terms of millimoles per kg body weight.
(§3) The experimental rabbits underwent surgery with an intent to create a severe degenerative arthritis by cutting the medial collateral ligament, the anterior cruciate ligament and removing the medial meniscus. A partial thickness laceration was made longitudinally on the lateral femoral condyle for future assessment of potential for repair. The surgery was performed by two licensed veterinarians. One surgeon was very experienced. The other surgeon was a recent graduate.
At necropsy, the synovial fluid was harvested percutaneously and upon arthrotomy. The synovium was harvested from posterior compartment. The patella and adjacent synovium was procured as a separate specimen as was the medial and lateral condyle.
The synovial fluid and half of the synovium was frozen and sent to BioBoston Laboratory for chemical analysis. The other half of the synovium and bone was sent to McClinchery Histology in Stockbridge, Mich. for histological preparation and staining. […]
Synovial Fluid—Detected by ELISA

[1] = system: patellar articular cartilage; test: ICRS histological visual scale scoring of patellar cartilage, rabbit arthritis model; type: in vivo; settings: prophylactic, minimum of 30 mg/kilo gram body weight by oral route
Source text: International Cartilage Repair Society (ICRS) criteria are described for example in Hoemann, et al., (cited on Applicant's IDS), herein incorporated by reference.
as §1, §2
The experimental rabbits underwent surgery with an intent to create a severe degenerative arthritis by cutting the medial collateral ligament, the anterior cruciate ligament and removing the medial meniscus. […]

IGF-1 = IGF-1 in plasma, rabbit arthritis model; type: in vivo; settings: for IGF-1 in the plasma: control group 25 PG/ML
Source text: as §1, §2, §3
Blood testing was performed prior to necropsy on C3G, PCA, glucose, MMP-3 and IGF-1 to assess any systemic effects.

C-reactive protein (CRP) = C-reactive protein (CRP) in plasma after knee surgery; type: in vivo, rabbit
Description: C-reactive protein (CRP) is a protein found in the blood plasma, the levels of which rise in response to inflammation (i.e., C-reactive protein is an acute-phase protein). Its physiological role is to bind to phosphocholine expressed on the surface of dead or dying cells (and some types of bacteria) in order to activate the complement system via the C1Q complex. CRP rises within two hours of the onset of inflammation, up to a 50,000-fold, and peaks at 48 hours. […] CRP is thus a screen for inflammation.
Knee surgery was performed to create a severe irreparable degenerative knee joint, which in turn elevated the CRP in the plasma to average of […]. A historical normal amount of CRP is 3.15 micrograms/mL. See Sun H, et al., Am J Pathol. October 2005; 167(4): 1139-1148. Rabbit CRP levels are close to the mean values of healthy middle-aged humans (2.82 mg/L) reported in the literature. See Ockene I S, et al., Clin Chem. 2001; 47:444-450.
The controls in the study were animals that had surgery and received no treatment. The prophylaxis test groups had the surgery and received 6 weeks of oral C-3-G or PCA 7 times per week as described in example 1. The therapeutic treatment group had surgery, received no treatment for 41 days and then at day 42 received oral C-3-G or PCA 7 times per week as described in example 1.

[2] = system: catabolic cytokine environment; test: Cytokine environment in surgically created arthritic knee; type: in vivo; settings: rabbits, either oral or intraarticular route
[3] = system: human mesenchymal stem cells; settings: in vitro, dose related; cited from earlier work
human synovial explants = settings: PCA directly applied; cited from earlier work

O=C(O)c1ccc(O)c(O)c1 [PCA, Protocatechuic acid (3,4-dihydroxybenzoic acid)]
ADAMTS-5 in synovial fluid (ADAMTS-5): decreased | articular cartilage cells ([1]; compared to the controls): unchanged in nature and spacing | subchondral bone structure ([1]; without sclerosis or osteophyte formation): remained normal in structure | IGF-1 in the plasma, change vs control (IGF-1; prophylactic group, oral days 1-42, only group with an increase): increased | IGF-1 in the plasma (IGF-1; prophylactic groups, oral days 1-42): 43.0 pg/mL | IGF-1 in the plasma (IGF-1; therapeutic groups, oral days 42-70): 29.0 pg/mL | CRP, an indicator of inflammation (C-reactive protein (CRP); given by oral route immediately after injury): kept to normal levels | plasma CRP level (C-reactive protein (CRP); prophylaxis test group, 6 weeks oral treatment from surgery, untreated control at 42 days 8.8 mg/mL): 3.6 micrograms/mL | plasma CRP level (C-reactive protein (CRP); therapeutic group, no treatment for 6 weeks after surgery, then 4 weeks oral treatment): 43 mg/mL | catabolic cytokine environment in a surgically created arthritic knee [2]: reversing | bone making markers in human mesenchymal stem cells [3]: produce bone making markers | IGF-1 in human synovial explants (human synovial explants): increased
